Results as given in US9080216B2, “Genetic changes in ATM and ATR/CHEK1 as prognostic indicators in cancer” (University of Pittsburgh-of the CommonWealth System of …, priority 2007, dated 2015).
“Also recorded” adds a separate entry of the source.

Experiments:
Format in all cases: cell-based, human
OSCC = assay: Cell cycle analysis by flow cytometry after caffeine and irradiation; details: following irradiation
Experimental: Cell Cycle Analysis by Flow Cytometry. […] These cells were washed with phosphate-buffered saline (PBS), and fixed with 70% ethanol. The cells were then treated with 80 μg/ml RNase A and 50 μg/ml propidium iodide (Invitrogen-Molecular Probes, Carlsbad, Calif.) for 45 min at 37° C. The stained cells were analyzed using a Coulter Epics XL Flow Cytometer in the UPCI Flow Cytometry Facility.

UPCI:SCC104 [1] = assay: Cell cycle analysis by flow cytometry; details: 1 mM or 5 mM caffeine 1 h prior to 5 Gy IR
Experimental: Cell Cycle Analysis by Flow Cytometry. […] These cells were washed with phosphate-buffered saline (PBS), and fixed with 70% ethanol. The cells were then treated with 80 μg/ml RNase A and 50 μg/ml propidium iodide (Invitrogen-Molecular Probes, Carlsbad, Calif.) for 45 min at 37° C. The stained cells were analyzed using a Coulter Epics XL Flow Cytometer in the UPCI Flow Cytometry Facility. SiRNA Transfection. ATR or CHEK1 inhibitions were carried out using the respective siRNAs for a specific knockout. RNA interference of ATR and CHEK1 was performed using Smartpool ATR and CHEK1 duplexes respectively, obtained from Dharmacon (Lafayette, Colo.). Nonspecific (scrambled) control duplexes (Dharmacon) were used for nonspecific siRNA treatment. The duplexes were reconstituted in 1×DNA-free RNA re-suspension buffer provided by Dharmacon and aliquoted according to the manufacturer's instructions. For transfection, the OSCC cell lines were seeded in 60 mm dishes or T25 flasks and transfected with siRNA duplexes using Lipofectamine 2000 (Invitrogen) according to the manufacturer's instructions. The individual siRNA duplex sequences are enumerated in Appendix B. The final working siRNA concentration achieved was between 90-100 nM. […]

UPCI:SCC084 = assay: Clonogenic cell survival assay
Experimental: (§1) Clonogenic Cell Survival Assay. To assess cell survival in response to ionizing radiation, clonogenic survival assays were performed. Two thousand cells were seeded in 60 mm Petri dishes and allowed to adhere overnight. […] The culture medium was replaced at the end of 7 days. Untreated cells cultured in parallel were used to determine relative plating efficiency. After 12 days, the cells were fixed with 70% ethyl alcohol and stained with Giemsa (Sigma, St. Louis, Mo.) and the number of colonies was assessed. A colony was defined as a cluster of ≧50 cells, having formed from a single cell. All experiments were performed in triplicate, and the error reported as one standard deviation from the mean.

UPCI:SCC104 [2] = assay: Clonogenic cell survival assay
Experimental: as §1
SiRNA Transfection. ATR or CHEK1 inhibitions were carried out using the respective siRNAs for a specific knockout. RNA interference of ATR and CHEK1 was performed using Smartpool ATR and CHEK1 duplexes respectively, obtained from Dharmacon (Lafayette, Colo.). Nonspecific (scrambled) control duplexes (Dharmacon) were used for nonspecific siRNA treatment. The duplexes were reconstituted in 1×DNA-free RNA re-suspension buffer provided by Dharmacon and aliquoted according to the manufacturer's instructions. For transfection, the OSCC cell lines were seeded in 60 mm dishes or T25 flasks and transfected with siRNA duplexes using Lipofectamine 2000 (Invitrogen) according to the manufacturer's instructions. The individual siRNA duplex sequences are enumerated in Appendix B. The final working siRNA concentration achieved was between 90-100 nM. We used cells treated with no vector (untreated), empty vector (mock-treated), cells transfected with a nonspecific siRNA, and a specific ATR or CHEK1 siRNA for all of our experiments. At the end of 48 h post-transfection, appropriate treatments (ionizing radiation or aphidicolin treatment) were carried out as described earlier.

[3] = cell lines with an upregulated ATR-CHEK1 pathway including GM09607 (AT cells)
[4] = different doses of caffeine, compared to UPCI:SCC066, 105 and control NHOK

Cn1c(=O)c2c(ncn2C)n(C)c1=O [caffeine]
sensitivity to caffeine (cell cycle profile) (OSCC; cell lines with an intact G1 checkpoint and normal ATR-CHEK1 expression): did not demonstrate any sensitivity
accumulation of cells in the S and G2M phases (OSCC; [3]): clearly reduced
sub-G0 population (dead cells) (OSCC; [3]): increased
G2M accumulation (UPCI:SCC104 [1]): dose dependent reduction
sub G0 peak (dead cells) (UPCI:SCC104 [1]): increase
reduction in colony survival (UPCI:SCC084; 0.5 mM caffeine, UPCI:SCC084, absence of any DNA damaging agents): > 50%
colony survival (UPCI:SCC084; 1 mM caffeine, UPCI:SCC084): complete absence of survival; also recorded: Complete inhibition of colony formation
sensitivity to caffeine (clonogenic cell survival) (UPCI:SCC084; [4]): increased sensitivity
reduction in colony survival (UPCI:SCC104 [2]; 0.5 mM caffeine, UPCI:SCC104, absence of any DNA damaging agents): > 50%
colony survival (UPCI:SCC104 [2]; 1 mM caffeine, UPCI:SCC104): complete absence of survival
sensitivity to caffeine (clonogenic cell survival) (UPCI:SCC104 [2]; [4]): increased sensitivity
